{"source": "BindingDB's records for doi:10.1021/jm970140s", "about": "(Merck Research Laboratories, 1997)", "target": "Vitamin K-dependent protein C (Homo sapiens) (UniProt P04070)", "sequence (P04070 whole entry, looked up)": "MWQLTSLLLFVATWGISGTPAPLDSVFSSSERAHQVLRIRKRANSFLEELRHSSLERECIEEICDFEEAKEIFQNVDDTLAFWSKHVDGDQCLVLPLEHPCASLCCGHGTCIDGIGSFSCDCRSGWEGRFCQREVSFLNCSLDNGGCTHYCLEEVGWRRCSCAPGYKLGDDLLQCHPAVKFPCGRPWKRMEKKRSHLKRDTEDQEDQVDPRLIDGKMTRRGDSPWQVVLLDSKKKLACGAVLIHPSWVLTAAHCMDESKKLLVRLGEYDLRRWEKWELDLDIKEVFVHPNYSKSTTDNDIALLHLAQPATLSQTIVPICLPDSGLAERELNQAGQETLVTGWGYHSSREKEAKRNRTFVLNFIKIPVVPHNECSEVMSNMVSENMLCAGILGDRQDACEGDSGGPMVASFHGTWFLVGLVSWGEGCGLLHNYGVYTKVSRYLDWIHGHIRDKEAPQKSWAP", "experiment": "Inhibitory activity against human serine protease (act protein C )(7.5*10e6*)", "data": [{"smiles": "NC1CCC(CNC(=O)[C@@H]2CCCN2C(=O)[C@H](N)C(C2CCCCC2)C2CCCCC2)CC1", "note": "(stereo partly specified) [1-(2-Amino-3,3-dicyclohexyl-propionyl)-pyrrolidine-2-carboxylic acid (4-amino-cyclohexylmethyl)-amide]", "values": [{"measurement": "Ki", "value": 417, "unit": "µM"}]}]}
